Assay [1] deals with MDA-MB-468. The assay is described as follows: Inhibition of human ER negative MDA-MB-468 cells by MTT assay. The format is functional, cell-based.
Assay [2] has as its system MDA-MB-468. The assay is described as follows: Cell cycle arrest in MDA-MB-468 cells by accumulation at G2/M phase at 1.0 to 2.0 uM by flow cytometry. It is filed as functional, cell-based. The following applies: Homo sapiens.
Assay [3] has as its system MDA-MB-468. The assay is described as follows: Cell cycle arrest in MDA-MB-468 cells by accumulation at G0/G1 phase at 0.5 uM after 24 hrs. It is filed as functional, Homo sapiens.
The subject of assay [4] is MDA-MB-468. The assay is described as follows: Cell cycle arrest in MDA-MB-468 cells by accumulation at S phase at 0.5 uM after 24 hrs. The format is functional, Homo sapiens.
In assay [5] the test system is MDA-MB-468. The assay is described as follows: Cell cycle arrest in MDA-MB-468 cells by accumulation at G2/M phase at 0.5 uM after 24 hrs. The format is functional, Homo sapiens.
Assay [6] has as its system MDA-MB-468. The assay is described as follows: Cell cycle arrest in MDA-MB-468 cells by accumulation at G0/G1 phase at 4.0 uM after 24 hrs. It is filed as functional, Homo sapiens.
Assay [7] has as its system MDA-MB-468. The assay is described as follows: Cell cycle arrest in MDA-MB-468 cells by accumulation at S phase at 4.0 uM after 24 hrs. The format is functional, Homo sapiens.
In assay [8] the test system is MDA-MB-468. The assay is described as follows: Cell cycle arrest in MDA-MB-468 cells by accumulation at G2/M phase at 4.0 uM after 24 hrs. It is filed as functional, Homo sapiens.
Assay [9] relates to MDA-MB-468. The assay is described as follows: Cell cycle arrest in MDA-MB-468 cells by accumulation at G0/G1 phase at 8.0 uM after 24 hrs. It is filed as functional, Homo sapiens.
Assay [10] has as its system MDA-MB-468. The assay is described as follows: Cell cycle arrest in MDA-MB-468 cells by accumulation at S phase at 8.0 uM after 24 hrs. It is filed as functional, Homo sapiens.
The subject of assay [11] is MDA-MB-468. The assay is described as follows: Cell cycle arrest in MDA-MB-468 cells by accumulation at G2/M phase at 8.0 uM after 24 hrs. The format is functional, Homo sapiens.
In assay [12] the test system is MDA-MB-468. The assay is described as follows: Induction of apoptosis in MDA-MB-468 cells assessed as DNA fragmentation after 24 hrs by TUNEL assay. The following applies: Homo sapiens. The format is functional, cell-based.
The subject of assay [13] is MDA-MB-468. The assay is described as follows: Induction of apoptosis in MDA-MB-468 cells assessed as blebbing at 8.0 uM after 24 hrs by electron microscopy. It is filed as functional, cell-based. The settings on record: Homo sapiens.
For assay [14], the system named is MDA-MB-468. The assay is described as follows: Induction of apoptosis in MDA-MB-468 cells assessed as apoptotic bodies at 8.0 uM after 24 hrs by electron microscopy. The settings on record: Homo sapiens. The format is functional, cell-based.
Assay [15] relates to MDA-MB-468. The assay is described as follows: Induction of apoptosis in MDA-MB-468 cells assessed as vacuolization at 8.0 uM after 24 hrs by electron microscopy. The format is functional, cell-based. The settings on record: Homo sapiens.
In assay [16] the test system is MDA-MB-468. The assay is described as follows: Induction of apoptosis in MDA-MB-468 cells assessed as nuclear condensation at 8.0 uM after 24 hrs by electron microscopy. The format is functional, cell-based. The settings on record: Homo sapiens.
In assay [17] the test system is MDA-MB-468. The assay is described as follows: Induction of apoptosis in MDA-MB-468 cells assessed as p53 levels at 8.0 uM. It is filed as functional, cell-based. The following applies: Homo sapiens.
The subject of assay [18] is MDA-MB-468. The assay is described as follows: Induction of apoptosis in MDA-MB-468 cells assessed as alteration in p53 localization. The format is functional, cell-based. The settings on record: Homo sapiens.

The structures appear in SMILES notation. Active and inactive are the calls of the source. No cut-off for these calls is given here.

For the compound `c1ccc(Sc2nc(Sc3ccccn3)nc(Sc3ccccn3)n2)nc1`, the IC50 (in general, the concentration needed to halve the response being measured) in [1] was 1600 nM. For the same compound, the result in [2], in assay [13], in assay [14], in assay [15] and in assay [16] was Active. In addition, the Activity in [3] came out at 49%; in [4], 29.2%; in assay [5], 21.8%; in assay [6], 33.6%; in assay [7], 25.9%; in [8] it was 40.5%. For the same compound, the Activity was 36.3% in [9]; 20.8% in [10]; 42.9% in [11]; “Dose-dependent effect” in assay [12]; “Dose-dependent effect” in assay [18]. In addition, the outcome in assay [17] was inactive.

The record behind these values is ChEMBL document CHEMBL1140682, “A novel series of potent cytotoxic agents targeting G2/M phase of the cell cycle and demonstrating cell killing by apoptosis in human breast cancer cells” (Bioorg Med Chem Lett, 2007).
